The test system of data set [1] is yeast ccc2Δ. The data set can be described thus: Respiratory growth rescue of ccc2Δ yeast. The format is cell-based, Saccharomyces cerevisiae. To be noted: non-fermentable media, 37° C. As to the method: Yeast Strains and Culture Conditions. The authenticity of yeast strains was confirmed by PCR as well as by replica plating on dropout plates. Yeast cells were cultured in standard YP growth media including YPD (1% yeast extract, 2% peptone and 2% glucose), YPGal (2% galactose), YPGE (3% glycerol+1% ethanol), or synthetic media (SC glucose). For qualitative growth measurement, 10-fold serial dilutions of overnight cultures were spotted on YPD or YPGE plates and incubated at 30° C. and 37° C. for the indicated period. Growth in liquid media was measured spectrophotometrically at 600 nm.
ES Rescues Many Different Yeast Mutants with Impaired Copper Metabolism. To test the specificity of ES mediated rescue, a number of yeast mutants of genes required for maintaining cellular and mitochondrial copper homeostasis were shortlisted. Genes were prioritized based on their evolutionary conservation, presence of pathogenic mutations in humans, and/or the existence of a related mouse phenotype (Table 3, shown below). […] Most of the yeast mutants were rescued with ES supplementation, albeit to different degrees, reflecting their distinct roles in cellular and mitochondrial copper homeostasis. […]

The subject of data set [2] is Ctrl^−/− mouse embryonic fibroblasts (MEFs). The data set can be described thus: COX1 levels in Ctr1 knockout mouse embryonic fibroblasts. The format is cell-based. The conditions noted are these: increasing ES doses. The procedure: (§1) Mammalian Cell Culture. The human control MCH46 and SCO2 patient fibroblasts as well as the rat H9c2 control and Ctr1^−/− cardiomyocytes were cultured in high glucose Dulbecco's modified Eagle's medium (DMEM) supplemented with 10% fetal bovine serum (Sigma) and 1 mM sodium pyruvate (Life Technologies). The mouse embryonic fibroblasts were cultured in DMEM 10% FBS, 1 mM sodium pyruvate, 1× minimum essential medium non-essential amino acids (MEM NEAA; Life Technologies 11140), 50 μg/mL uridine, and 1× Pen Strep Glutamine (Life Technologies 10378). All cell lines were cultured under 5% CO2 at 37° C. and were treated with indicated concentrations of ES for 3-6 days before harvesting. Whole cell protein was extracted in lysis buffer (BP-115, Boston BioProducts) supplemented with protease inhibitor cocktail (Roche Diagnostics) and the protein concentrations were determined by BCA assay (Thermo Scientific).
(§2) Immunoblotting and In-gel Activities. Sodium dodecyl sulfate polyacrylamide gel electrophoresis (SDS-PAGE) and Blue Native PAGE (BN-PAGE) were performed to separate denatured and native protein complexes, respectively. For SDS-PAGE, mitochondrial lysate ([…]) was separated on NuPAGE 4-12% Bis-Tris gels (Life Technologies, Carlsbad, CA). For BN-PAGE, yeast mitochondria were solubilized in buffer containing 1% digitonin (Life Technologies) by incubating for 15 min at 4° C. […]

Data set [3] has as its system yeast coa6Δ cells expressing patient mutations (W26C, W33R and E54X). The data set can be described thus: Rescue of yeast coa6Δ cells expressing yeast-human chimeric COA6 with patient mutations. The format is cell-based, Saccharomyces cerevisiae. To be noted: 10 nM ES. An excerpt:
Reagents. All the copper binding compounds were purchased from Sigma-Aldrich, except Elesclomol (ES), which was purchased from Selleckchem. The yeast-human hybrid (hyCOA6) gene construct was codon optimized for yeast and synthesized using GENEART® Gene Synthesis (Life Technologies). The hybrid gene hyCOA6 was cloned into pRS416 plasmid under the control of the yeast Coa6 native promoter. COA6 patient mutations were introduced by site-directed-mutagenesis (Agilent Technologies QuikChange Lightning) using hyCOA6 as a template. All the constructs were sequenced verified.
Yeast Strains and Culture Conditions. The authenticity of yeast strains was confirmed by PCR as well as by replica plating on dropout plates. Yeast cells were cultured in standard YP growth media including YPD (1% yeast extract, 2% peptone and 2% glucose), YPGal (2% galactose), YPGE (3% glycerol+1% ethanol), or synthetic media (SC glucose). […] Growth in liquid media was measured spectrophotometrically at 600 nm.
A number of copper-binding pharmacological agents were tested for their ability to rescue respiratory deficient growth of coa6Δ cells. […] To determine the biochemical basis for the observed respiratory rescue of coa6Δ cells, the assembly and activity of CcO-containing mitochondrial respiratory chain supercomplexes was measured by native-polyacrylamide gel electrophoresis blotting and in-gel activity assay, respectively. […]

Data set [4] relates to zebrafish embryos. As to the kind of experiment: Survival of zebrafish embryos treated with ES, copper and combinations. The format is in vivo. The text has this:
NT, No treatment; ES, Elesclomol.

The conditions of data set [5]: multiple human clinical trials; cited from earlier work.
Data set [6] relates to control MEFs. The data set can be described thus: COX1 levels in control mouse embryonic fibroblasts (toxicity). The format is cell-based. The conditions noted are these: higher doses of ES. As to the method: as §1, §2

With `CN(NC(=O)CC(=O)NN(C)C(=S)c1ccccc1)C(=S)c1ccccc1` [ES, elesclomol], the results for the “rescue of respiratory growth” value in data set [1] and in data set [3] were “rescue” and “rescued”, respectively. For the same molecule, the COX1 levels result in data set [2] is on record as “dose dependent rescue”. In data set [4] (co-supplementation of 100 nM ES with 100 nM of copper), the lethality was 100%. Moreover, the maximal tolerable dose in data set [4] (zebrafish embryos) is recorded as 100 nM. In addition, the toxicity profile entry in data set [5] is “favorable toxicity profile”. In data set [6], the “ES toxicity reflected in COX1 levels” value is “reduced COX1 levels”.

The record behind these values is US20240285555A1, “COMPOSITIONS FOR THE TREATMENT OF COPPER DEFICIENCY AND METHODS OF USE” (priority 2018, published 2024).
